Data: US7655225B2, “Methods of expanding stem and progenitor cells and expanded cell populations obtained thereby” (Gamida Cell, Ltd., priority 2002, dated 2010)

How the values were obtained:
mononuclear cells (MNC) [1] = test: Colony-forming cells (CFUs) from mixed cells (MNC) culture; format: cell-based, human; conditions: FIG. 18
Method: Self-renewal potential evaluations: The self-renewal potential of stem cells was determined in vitro by long-term colony formation. Cells were washed and seeded in a semi-solid methylcellulose medium supplemented with 2 IU/ml erythropoietin (Eprex, Cilage AG Int., Switzerland), stem cell factor and IL-3, both at 20 ng/ml (Perpo Tech), and G-CSF and GM-CSF, both at 10 ng/ml (Perpo Tech). The resulting colonies were scored after two weeks of incubation at 37° C. in a humidified atmosphere of 5% CO2 in air. Colonies were classified as blast, mixed, erythroid, myeloid, and megakaryocytic, according to their cellular composition.
Ex vivo expansion of progenitor cells: The non-purified mononuclear cells (MNC), obtained as described hereinabove, were seeded in Culture Bags (American Fluoroseal Corp.), with alpha minimal essential medium supplemented with 10% fetal bovine serum (FBS, Biological Industries), at a concentration of about 10^6 cells/ml. The purified CD34^+ cells were similarly seeded in the Culture Bags, at a concentration of […]. The media were supplemented with TEPA chelator and/or with the following human recombinant cytokines (all obtained from Perpo Tech, Inc., Rocky Hill, N.J.): Thrombopoietin (TPO), 50 ng/ml; interleukin 6 (IL-6), 50 ng/ml; FLT-3 ligand, 50 ng/ml and a stem cell factor (SCF), 50 ng/ml; occasionally SCF was replaced by IL-3, 20 ng/ml. […]

mononuclear cells (MNC) [2] = test: Ex vivo expansion of stem and progenitor cells in mixed cells culture: cell enumeration and FACS; format: cell-based, human; conditions: for cumulative number of CD34+ cells: TEPA first three weeks only, FIGS. 16a-b; for cumulative number of CD34+ cells per culture bag: control 2.56×10^6; for Portion of CD34+ cells (%): control 0.2; for Number of CD34+ cells (×10^4): control 256.0
Method: Sample collection and processing: Samples were obtained from umbilical cord blood after a normal full-term delivery and were frozen within 24 hours pospartum. The blood cells were thawed in Dextran buffer and incubated for […] in MEM (Biological Industries, Israel) supplemented with 10% fetal calf serum (FCS; Biological Industries). The cells were then layered on Ficoll-Hypaque (density 1.077 gram/ml; Sigma) and centrifuged at 400 g for 30 minutes at room temperature. The mononuclear cells in the interface layer were then collected, washed three times in phosphate-buffered saline (PBS; Biological Industries), and re-suspended in PBS containing 0.5% human serum albumin (HSA). The cells were then split into two fractions, the first being the mononuclear cells (MNC) and the second fraction was used for purifying CD34^+ cells by immunomagnetic separation using the “MiniMACS CD34^+ progenitor cell isolation kit” (Miltenyi Biotec, Auburn, Calif.) according to the manufacturer's recommendations. The purity of the CD34^+ cells obtained ranged between 95% and 98%, based on Flow Cytometry evaluation (see below). Ex vivo expansion of progenitor cells: The non-purified mononuclear cells (MNC), obtained as described hereinabove, were seeded in Culture Bags (American Fluoroseal Corp.), with alpha minimal essential medium supplemented with 10% fetal bovine serum (FBS, Biological Industries), at a concentration of about 10^6 cells/ml. The purified CD34^+ cells were similarly seeded in the Culture Bags, at a concentration of […]. The media were supplemented with TEPA chelator and/or with the following human recombinant cytokines (all obtained from Perpo Tech, Inc., Rocky Hill, N.J.): Thrombopoietin (TPO), 50 ng/ml; interleukin 6 (IL-6), 50 ng/ml; FLT-3 ligand, 50 ng/ml and a stem cell factor (SCF), 50 ng/ml; occasionally SCF was replaced by IL-3, 20 ng/ml. For non-hemopoietic differentiation, FGF, EGF, NGF, VEGF, LIF or Hepatocyte growth factor, were used alone or in various combinations. All cultures were incubated at 37° C. in an atmosphere of 5% CO2 in air with extra humidity. At weekly intervals, the cell cultures were semi-depopulated and supplemented with fresh medium containing cytokines. Following different incubation periods, cells were harvested, stained with trypan blue and enumerated. Determining the density of stem and progenitor subset populations following expansion was carried out as described in the experimental procedures section of Example 3 above. Non-purified mononuclear cells (MNC) were seeded in culture bags and were provided with nutrients and cytokines as described above. The MNC cultures were either treated or untreated (untreated controls) with TEPA-chelator. The treated MNC cultures were supplemented with TEPA for only the first three weeks and from week three onward were topped with chelator-free media. The pre-purified CD34^+ cultures were not supplemented with TEPA and served as positive controls. The cultures were analyzed weekly during a 12-week period. Non-purified (mixed cells) mononuclear cells (MNC) were seeded in culture bags and were provided with nutrients and cytokines as described in Example 4 above. The mixed cell cultures were either untreated (control) or treated with Cu-TEPA chelate. The treated MNC cultures were supplemented with Cu-TEPA chelate for only the first three weeks and from week three onward were topped with chelator-free media. All cultures were analyzed […].

mononuclear cells (MNC) [3] = test: Morphological analysis of cells from long-term MNC cultures; format: cell-based, human; conditions: untreated: fully differentiated
Method: Morphological assessment: In order to characterize the resulting culture populations, aliquots of cells were deposited on a glass slide (cytocentrifuge, Shandon, Runcorn, UK), fixed and stained in May-Grunwald and Giemsa stain. Cloning potential evaluation, morphological assessment and surface antigen analyses were carried out as described in the experimental procedures section of Example 1 above.

CD34+ cells = test: Morphological assessment of cultured CD34+ cells; format: cell-based, human; conditions: 8-weeks culture; control: mainly differentiated cells; FIGS. 3a-b
From the text: Morphological assessment: In order to characterize the resulting culture populations, aliquots of cells were deposited on a glass slide (cytocentrifuge, Shandon, Runcorn, UK), fixed and stained in May-Grunwald and Giemsa stain.

platelets = test: In vivo recovery of platelets after gamma-irradiation; design: species or system mice (BALB/C X C57B1/6/F1); conditions: single treatment, 30 μM; irradiated mice
Method: In this experiment, ten mice (BALB/C X C57B1/6/F1) were gamma-irradiated (700 cGy) so as to mimic an irradiation therapy situation that destroys platelets. One day after irradiation five (out of ten) mice were administered with 30 μM of Cu-TEPA, while the other five mice were non-treated. The platelet levels in all mice were enumerated one week after irradiation. […] The results of this experiment illustrate that a copper chelate can effectively enhance the recovery of hematopoietic cells in subjects exposed to irradiation treatment.

[4] = 50 μM, MNC culture, eight weeks after seeding
[5] = 100 μM, MNC culture, eight weeks after seeding

NCCNCCNCCNCCN [TEPA chelator, tetraethylenepentamine]
number of CD34+ CFUs (mononuclear cells (MNC) [1]; after 2 weeks): non-detectable
number of CD34+ CFUs (mononuclear cells (MNC) [1]; after 10 weeks): 3.2×10^7 cells/ml
cumulative number of CD34+CD38− cells (mononuclear cells (MNC) [2]; MNC culture, after 2 weeks, FIG. 17): non-detectable
cumulative number of CD34+ cells (mononuclear cells (MNC) [2]; MNC culture, after 2 weeks): non-detectable
cumulative number of CD34+CD38− cells (mononuclear cells (MNC) [2]; MNC culture, after 12 weeks, FIG. 17): 2.5×10^7 cells/ml
cumulative number of CD34+ cells (mononuclear cells (MNC) [2]; MNC culture, after 12 weeks): over 8×10^7 cells/ml
stem and progenitor cells densities vs pre-purified CD34+ cells cultures (not treated with TEPA) (mononuclear cells (MNC) [2]; TEPA-treated MNC cultures, 12-week period): either equalized or surpassed
morphological analysis of cells (mononuclear cells (MNC) [3]): high proportion of non-differentiated cells

NCCNCCNCCNCCN.[Cl-].[Cl-].[Cu+2] [TEPA-Cu chelate, tetraethylenepentamine-copper chelate]
morphological analysis of culture (CD34+ cells): mainly blast-like cells
cumulative number of CD34+ cells per culture bag (mononuclear cells (MNC) [2]; 50 μM, MNC culture, 8 weeks): 12.37×10^6
Portion of CD34+ cells (%) (mononuclear cells (MNC) [2]; [4]): 1.4%
Number of CD34+ cells (×10^4) (mononuclear cells (MNC) [2]; [4]): 1237.3 ×10^4
cumulative number of CD34+CD38− cells (mononuclear cells (MNC) [2]; 100 μM, MNC culture, 8 weeks, control 2.1×10^5): 6.1×10^5
cumulative number of CD34+ cells per culture bag (mononuclear cells (MNC) [2]; 100 μM, MNC culture, 8 weeks): 32.85×10^6
Portion of CD34+ cells (%) (mononuclear cells (MNC) [2]; [5]): 1.2%
Nunber of CD34/38− cells (×10^4) (mononuclear cells (MNC) [2]; 100 μM, MNC culture, eight weeks after seeding, control 21): 61 ×10^4
Number of CD34+ cells (×10^4) (mononuclear cells (MNC) [2]; [5]): 3285.3 ×10^4
recovery of platelets vs non-treated control (platelets): significantly accelerated
